In PubChem BioAssay (NCI) one finds TGI and GI50 data, which are given here for four compounds.

“And” between values parts separate entries of the source, which are not always exact repeats. Identical values can stand only once.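 Each compound was tested at five concentrations against cells in 96-well plates for 48 hours. Abbreviation: GI50, concentration required for 50% inhibition of growth. TGI denotes the concentration required for complete inhibition of growth.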

Some test systems named below: TK-10 renal; SNB-75 CNS; UO-31 renal; SF-268 CNS; CCRF-CEM leukemia; SK-OV-3 ovarian; KM20L2 colon; SR leukemia; HCT-15 colon; DMS 273 small cell lung.
Common to all, as to assay: NCI-60 cell line screen, 48 h

Regarding `COc1ccccc1NC(=O)CC(=O)n1nc(C)c(N=Nc2ccccc2Cl)c1C`, the TGI was over 100 µM with TK-10 renal; 57.2 µM in the experiment with SNB-75 CNS; over 100 µM with UO-31 renal; over 100 µM in the experiment on SF-268 CNS; over 100 µM with CCRF-CEM leukemia; 98.6 µM in the experiment on SK-OV-3 ovarian. Besides, the TGI was over 100 µM with KM20L2 colon, 97.9 µM in the experiment with SR leukemia, over 100 µM with HCT-15 colon and over 100 µM with DMS 273 small cell lung.
Regarding `N#CC1(N2CCCC2)CCC2(CC1)OCCO2`, the TGI with TK-10 renal, with SNB-75 CNS, in the experiment with UO-31 renal, with SF-268 CNS, with CCRF-CEM leukemia and in the experiment with SK-OV-3 ovarian was over 100 µM throughout. Also, the TGI is over 100 µM with KM20L2 colon, over 100 µM with SR leukemia, over 100 µM in the experiment on HCT-15 colon and over 10 µM with DMS 273 small cell lung.
For `CC1OC(CC(=O)O)Cc2c1c(O)c1c(O)cc(-c3cc(=O)c4c(=O)c5c(c(=O)c=4c3=O)CC(CC(=O)O)OC5C)c(O)c1c2O` (stereo unspecified), the GI50 with TK-10 renal is 34 µM; in the experiment with SNB-75 CNS it was 19.4 µM; with UO-31 renal it was 30.3 µM; in the experiment with SF-268 CNS it was 47.8 µM; in the experiment on SK-OV-3 ovarian, 48.8 µM; in the experiment on HCT-15 colon, 61.6 µM. Besides, the TGI is over 93 µM with TK-10 renal; > 100 µM and 57.1 µM with SNB-75 CNS; over 64.5 µM in the experiment with UO-31 renal; over 100 µM with SF-268 CNS; over 48.2 µM in the experiment with CCRF-CEM leukemia; over 100 µM in the experiment on SK-OV-3 ovarian. Besides, the TGI was over 68 µM in the experiment on KM20L2 colon, 53.9 µM with SR leukemia, 16.7 µM in the experiment with HCT-15 colon and 47 µM in the experiment with DMS 273 small cell lung.
Regarding `Cc1ccc(/C=N/NS(=O)(=O)c2ccccc2)cc1C`, the TGI in the experiment with TK-10 renal, in the experiment on SNB-75 CNS, with UO-31 renal, in the experiment on SF-268 CNS, with CCRF-CEM leukemia and in the experiment with SK-OV-3 ovarian was over 100 µM throughout. The TGI in the experiment on KM20L2 colon, with SR leukemia, in the experiment on HCT-15 colon and in the experiment with DMS 273 small cell lung was over 100 µM throughout.
